What was measured:
rabbits = test: Immunization of rabbits with peptide antigens, antibody titer in sera; format: in vivo, rabbit; conditions: for Post immunization titers: estimated titer of the antibodies in sera from the immunized rabbits; for Before immunization: titer of the antibodies in rabbit sera before immunization
Excerpt: The basic problem in preparation antibody for triplets and PRPC peptides is the size of antigen use for immunization purposes. Triplets by definition are made from three amino acids. Under normal condition such peptides are too small to induce the antibody production. The monospecific antibodies, however, can be made by presenting the antigen in the form of a single amino acid as an annealed antigen. The annealed antigen can be made from the same amino acid. In other approach it is possible to increase the size of antigen by repeating the same motif several times. Formation of the annealing polymer will overcome the difficulties connected with the antigen (peptide) for antibody production.
In order to make annealing it is necessary sometimes, to add to peptide empty (not active immunological) amino acids. The strategy used for production antibodies included both variants and addition of the complete Freund adjuvant. The mono-specific antibodies against various ovine PRPC antigens were prepared on rabbits. The larger animals like sheep, goat, or horse may also be utilized. Two rabbits were selected for each natural antigen.

[1] = system: immobilized gamma globulin (IgG-2); test: Adsorption and desorption of ovine PRPC peptides on immobilized IgG-2 column, ELISA titer; format: binding; conditions: for Titer in pool: starting material, ELISA with mono-specific anti peptide antibody; for Desorbs (pH 5.0): titer in material eluted in pH 5.0 buffer; for Not adsorbed: titer in material not adsorbed on immobilized IgG-2 column at neutral pH
Description: The ovine PRPC purified as described earlier was applied on immobilized IgG-2 column at neutral pH and eluted in pH 5.0 buffer. The starting materials not adsorbed and eluted materials were tested for the presence of selected peptides by an ELISA method, using mono-specific anti peptide antibody.
Changing the pH 7.0 of the IgG column by the elution buffer of pH 5.0 releases the peptides from the immobilized gamma globulin. Since the interaction between gamma globulin and peptide is not specific, the adsorption and desorption of the peptides from PRPC confirm theory concerning storage facility No II. Furthermore, the finding supports the hypothesis that binding the triplets to macromolecule represents the new mechanism used by host to transport triplets to new cells.

[2] = Scavenger activity in Spin trap Electromagnetic resonance; format: biochemical; conditions: for Scavenger Activity: Spin trap Electromagnetic resonance
Description: (§1) The studies leading to discovery the mechanism protecting signals was already described earlier and is repeated here in Table 11. Amino acids QT, V, and DG may serve as an example of PRP protector present in CN V. The identified peptides were synthesized by BIO-[…] Inc. Lewisville Tex. USA. Peptides were purified in to 99% of purity their amino acid sequences were confirmed. The scavengers activity ware tested in Spin trap Electromagnetic resonance and their effect on the amyloid formation was tested on adult Lewis rats exposed to induced hypoxia. […] If small structural changes in carrier peptides lead to activation their biological activity, similar changes may suppress activity or even terminate the signal. This important property is called feed back signal. Similar type of signals ought to operate within PRPC III and PRPC IV network or are coded in CN V. In Table 12 are listed peptides that may be considered as terminating signals.

amyloid formation = test: Amyloid formation in adult Lewis rats exposed to induced hypoxia; format: in vivo; conditions: grades 0 to +++++, key not given
Description: as §1

Row | Substance | Post immunization titers (rabbits) | Before immunization (rabbits) | other results
1 | SEQP (Ovis aries) [SEQ. ID. NO.: 5] | >25,600 | 0 | 
2 | LPPNVG (Ovis aries) [SEQ. ID. NO.: 12] | >25,000 | 0 | 
3 | MQPPPLP (Ovis aries) [B-8, ID NO.: 18] |  |  | Titer in pool [1]: 9000; Desorbs (pH 5.0) [1]: 12800; Not adsorbed [1]: 400
4 | VLEMKFPPPPQETVT (Ovis aries) [SEQ. ID. NO.: 3] | 12,800 | 0 | 
5 | VYPFPGPIN [SEQ. ID NO.: 24] |  |  | Free radical scavenger property (in words) [2]: powerful free radicals scavengers
6 | LSQPKVLPVPQKAVPKPDMPIQ [SEQ. ID NO.: 34] |  |  | Free radical scavenger property (in words) [2]: powerful free radicals scavengers
7 | LKPFPKLKVEVFPFP (Ovis aries) [SEQ. ID. NO.: 4] | >25,600 | 0 | 
8 | QPLLQVMMEPQ (Ovis aries) [SEQ. ID NO.: 10] |  |  | Scavenger Activity [2]: 75%
9 | DSQPPV (Ovis aries) [SEQ. ID. NO.: 14] | >25,000 | 0 | 
10 | AFLLYQEPVLGPV [D-1, ID NO.: 40] |  |  | Titer in pool [1]: 9300; Desorbs (pH 5.0) [1]: 6400; Not adsorbed [1]: 200
11 | DLEMPVLPVEPFPFV (Ovis aries) [SEQ. ID. NO.: 16] | >25,000 | 0 | 
12 | LQTPQPLLQVMMEPQGD (Ovis aries) [SEQ. ID. NO.: 1] | 12,800 | 0 | Inhibit Amyloid Formation (amyloid formation): 0; Titer in pool [1]: 5400; Desorbs (pH 5.0) [1]: 3200; Not adsorbed [1]: 800; Scavenger Activity [2]: 11%
13 | SPSLPQNIL [SEQ. ID NO.: 25] |  |  | Free radical scavenger property (in words) [2]: powerful free radicals scavengers
14 | SPSLPQNIL [C-2, ID NO.: 25] |  |  | Titer in pool [1]: 5325; Desorbs (pH 5.0) [1]: 12800; Not adsorbed [1]: 0
15 | FPPPK (Ovis aries) [SEQ. ID. NO.: 15] | >25,000 | 0 | 
16 | SEEMP (Ovis aries) [SEQ. ID. NO.: 13] | >25,000 | 0 | 
17 | HKEMPFPKYPVEPFTESQ [SEQ. ID NO.: 28] |  |  | Free radical scavenger property (in words) [2]: powerful free radicals scavengers
18 | MQPPPLP (Ovis aries) [SEQ. ID. NO.: 18] | >25,000 | 0 | 
19 | DQPPDVEKPDLQPFQVQS (Ovis aries) [B-9, ID NO.: 19] |  |  | Titer in pool [1]: 2075; Desorbs (pH 5.0) [1]: >25600; Not adsorbed [1]: 0
20 | EMPFPKY (Ovis aries) [SEQ. ID. NO.: 21] | >25,000 | 0 | 
21 | VLEMKFPPPPQETVT (Ovis aries) [A-3, ID NO.: 3] |  |  | Titer in pool [1]: 1350; Desorbs (pH 5.0) [1]: 6400; Not adsorbed [1]: 400
22 | LFFFLPVVNVLP (Ovis aries) [SEQ. ID. NO.: 17] | >25,000 | 0 | 
23 | MPQNFYKLPQM (Ovis aries) [SEQ. ID. NO.: 2] | >25,600 | 0 | 
24 | AFLLYQEPVLGPV [SEQ. ID. NO.: 40] | >25,000 | 0 | 
25 | RGPTPILV |  |  | Free radical scavenger property (in words) [2]: powerful scavenger property
26 | LVYPFTGPIPNSLPQNILP (Ovis aries) [SEQ. ID. NO.: 20] | >25,000 | 0 | 
27 | DQPPDVEKPDLQPFQVQS (Ovis aries) [SEQ. ID. NO.: 19] | >25,000 | 0 | 
28 | LSQPKVLPVPQKAVPKPDMPIQ [C-11, ID NO.: 34] |  |  | Titer in pool [1]: 15400; Desorbs (pH 5.0) [1]: >25600; Not adsorbed [1]: 400
29 | DPPPPQS (Ovis aries) [SEQ. ID. NO.: 6] | 6,400 | 0 | 

Source: patent US20100173827A1, “ROLE OF PROLINE RICH PEPTIDES IN CELLULAR COMMUNICATION MECHANISMS AND TREATMENT OF DISEASES” (priority 2008, published 2010)
